This passage reports Activity and Km results from ChEMBL document CHEMBL2074179, “Comparison of "type I" and "type II" organic cation transport by organic cation transporters and organic anion-transporting polypeptides” (J Pharmacol Exp Ther, 2001).

“And” between values parts separate entries of the source, which are not always exact repeats. Identical values can stand only once.

The Km is the substrate concentration at which the rate is half of its maximum.

For data set [1], the target named is T1, Solute carrier organic anion transporter family member 1A4 (Rattus norvegicus, UniProt O35913).
T1 sequence (O35913 whole entry): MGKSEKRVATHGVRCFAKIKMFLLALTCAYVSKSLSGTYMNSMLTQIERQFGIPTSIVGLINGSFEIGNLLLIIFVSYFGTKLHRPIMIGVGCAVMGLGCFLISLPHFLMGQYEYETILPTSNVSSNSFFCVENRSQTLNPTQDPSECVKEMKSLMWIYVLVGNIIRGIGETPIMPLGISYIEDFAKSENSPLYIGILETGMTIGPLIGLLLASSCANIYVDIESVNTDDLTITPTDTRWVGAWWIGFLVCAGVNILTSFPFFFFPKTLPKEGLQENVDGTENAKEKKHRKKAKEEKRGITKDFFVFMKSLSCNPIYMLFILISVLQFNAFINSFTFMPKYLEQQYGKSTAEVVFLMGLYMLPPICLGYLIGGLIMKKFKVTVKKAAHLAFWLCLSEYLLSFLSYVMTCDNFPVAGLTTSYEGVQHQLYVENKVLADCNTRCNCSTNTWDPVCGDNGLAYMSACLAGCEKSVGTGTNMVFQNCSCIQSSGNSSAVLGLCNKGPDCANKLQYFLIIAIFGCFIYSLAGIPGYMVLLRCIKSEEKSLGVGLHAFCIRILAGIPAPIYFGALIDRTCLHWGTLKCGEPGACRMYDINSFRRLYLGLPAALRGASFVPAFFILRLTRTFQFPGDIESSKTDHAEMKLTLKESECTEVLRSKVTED
Description: (§1) TP_TRANSPORTER: inhibition of Rocuronium uptake in Xenopus laevis oocytes. The data set is classed as functional, cell-based. Particulars: oocyte.

Data set [2] has as its target T2, Solute carrier family 22 member 1 (Homo sapiens, UniProt O15245).
T2 sequence (O15245 whole entry): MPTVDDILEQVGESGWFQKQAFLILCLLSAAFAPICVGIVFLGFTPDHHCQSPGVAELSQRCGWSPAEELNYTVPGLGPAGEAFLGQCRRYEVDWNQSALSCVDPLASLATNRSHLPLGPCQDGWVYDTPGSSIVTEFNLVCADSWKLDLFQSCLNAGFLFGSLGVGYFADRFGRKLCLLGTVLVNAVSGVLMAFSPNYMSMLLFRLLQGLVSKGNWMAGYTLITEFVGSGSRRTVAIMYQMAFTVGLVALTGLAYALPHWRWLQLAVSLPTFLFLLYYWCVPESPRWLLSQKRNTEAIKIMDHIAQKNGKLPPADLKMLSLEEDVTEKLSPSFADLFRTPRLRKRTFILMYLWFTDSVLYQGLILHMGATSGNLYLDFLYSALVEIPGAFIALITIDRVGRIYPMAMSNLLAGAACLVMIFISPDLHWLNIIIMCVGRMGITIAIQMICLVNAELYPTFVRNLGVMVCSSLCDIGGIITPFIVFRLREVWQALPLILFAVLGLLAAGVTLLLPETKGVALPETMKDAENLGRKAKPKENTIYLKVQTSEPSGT
Description: (§2) TP_TRANSPORTER: uptake in Xenopus laevis oocytes. It counts as functional, cell-based. Particulars: oocyte.

Data set [3] concerns the target T3, Solute carrier family 22 member 1 (Rattus norvegicus, UniProt Q63089).
T3 sequence (Q63089 whole entry): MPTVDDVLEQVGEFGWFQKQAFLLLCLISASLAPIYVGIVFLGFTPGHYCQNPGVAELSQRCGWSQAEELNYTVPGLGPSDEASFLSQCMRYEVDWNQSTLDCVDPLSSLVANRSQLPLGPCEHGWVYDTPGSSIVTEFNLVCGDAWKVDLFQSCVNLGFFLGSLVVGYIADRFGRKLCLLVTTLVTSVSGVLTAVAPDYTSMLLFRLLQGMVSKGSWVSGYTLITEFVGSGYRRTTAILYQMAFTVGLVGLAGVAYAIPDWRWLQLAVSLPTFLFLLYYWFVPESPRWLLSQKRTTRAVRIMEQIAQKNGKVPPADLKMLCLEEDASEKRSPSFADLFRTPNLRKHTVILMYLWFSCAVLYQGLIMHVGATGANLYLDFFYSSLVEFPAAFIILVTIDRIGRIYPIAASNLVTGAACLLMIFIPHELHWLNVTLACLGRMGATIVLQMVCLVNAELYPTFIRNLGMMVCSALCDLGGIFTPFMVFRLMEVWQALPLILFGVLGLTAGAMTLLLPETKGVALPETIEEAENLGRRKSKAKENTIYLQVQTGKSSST
Described as §2. The settings on record: oocyte. It counts as functional, cell-based.

The target of data set [4] is T2, Solute carrier family 22 member 1. Description: (§3) TP_TRANSPORTER: inhibition of TBuMA uptake in Xenopus laevis oocytes. Particulars: oocyte. It counts as functional, cell-based.
Data set [5] has as its target T3, Solute carrier family 22 member 1. Described as §3. The data set is classed as functional, cell-based. Particulars: oocyte.
Data set [6] has as its target T4, Solute carrier organic anion transporter family member 1A2 (Homo sapiens, UniProt P46721).
T4 sequence (P46721 whole entry): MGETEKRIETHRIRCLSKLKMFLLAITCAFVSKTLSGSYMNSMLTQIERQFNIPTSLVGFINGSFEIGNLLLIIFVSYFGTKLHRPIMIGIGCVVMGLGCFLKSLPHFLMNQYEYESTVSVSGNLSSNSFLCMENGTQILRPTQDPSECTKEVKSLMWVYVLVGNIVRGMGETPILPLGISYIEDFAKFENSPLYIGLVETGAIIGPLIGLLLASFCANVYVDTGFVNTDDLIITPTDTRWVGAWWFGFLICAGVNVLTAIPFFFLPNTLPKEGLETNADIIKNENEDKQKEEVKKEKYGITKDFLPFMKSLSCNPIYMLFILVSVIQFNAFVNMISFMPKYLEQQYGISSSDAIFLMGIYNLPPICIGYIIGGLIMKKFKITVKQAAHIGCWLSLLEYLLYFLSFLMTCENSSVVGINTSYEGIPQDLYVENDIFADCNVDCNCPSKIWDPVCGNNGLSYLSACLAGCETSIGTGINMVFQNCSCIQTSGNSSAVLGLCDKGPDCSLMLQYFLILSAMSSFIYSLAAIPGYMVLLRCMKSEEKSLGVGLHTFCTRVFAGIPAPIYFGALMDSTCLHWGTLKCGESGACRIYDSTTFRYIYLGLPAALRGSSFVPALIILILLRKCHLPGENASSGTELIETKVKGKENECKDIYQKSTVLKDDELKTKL
The description is as §1. The data set is classed as functional, cell-based. The settings on record: oocyte.

The target of data set [7] is T3, Solute carrier family 22 member 1. Described as §1. The data set is classed as functional, cell-based. The settings on record: oocyte.
Substrate in data set [8]: C=C[C@H]1C[N+]2(C)CC[C@H]1C[C@H]2[C@H](O)c1ccnc2ccc(OC)cc12
The description is as §2. It counts as functional, cell-based, Oocyte.

Substrate in data set [9]: CCCC[N+](C)(CCCC)CCCC
The data set is described as §2. The data set is classed as functional, cell-based, Oocyte.

Substrate in data set [10]: CC[N+](C)(CC)CCNC(=O)c1ccc(N=[N+]=[N-])cc1
Described as §2. It counts as functional, cell-based, Oocyte.

Substrate in data set [11]: [H][C@@]12CC[N+](C)(C[C@]1([H])C=C)[C@@]([H])([C@@H](O)c1ccnc3ccc(OC)cc13)C2
The data set is described as §2. The data set is classed as functional, cell-based, Oocyte.

In the case of `C[C@@H]1O[C@@H](O[C@H]2C[C@@H](O)[C@]3(CO)[C@H]4[C@H](O)C[C@]5(C)[C@@H](C6=CC(=O)OC6)CC[C@]5(O)[C@@H]4CC[C@]3(O)C2)[C@H](O)[C@H](O)[C@H]1O` [OUABAIN], the Activity result in [1] is “inhibitor [+]”.

As to `CC1(CCC[N+]23CCC(CC2)CC3)N=N1`, the Activity entry in data set [2] and in [3] was “substrate [+]” in each case.

With `CC[N+](C)(CC)CCNC(=O)c1ccc(N=[N+]=[N-])cc1.[I-]` [AZIDOPROCAINAMIDE METHOIODIDE], the Activity result in data set [4], in data set [5] and in data set [6] was “inhibitor [+]” throughout.

`C=CC[N+]1([C@H]2C[C@H]3[C@@H]4CC[C@H]5C[C@H](O)[C@@H](N6CCOCC6)C[C@]5(C)[C@H]4CC[C@]3(C)[C@H]2OC(C)=O)CCCC1` [ROCURONIUM]: the Activity entry in data set [4] and in data set [7] was “inhibitor [+]” throughout.

In the case of `C=C[C@H]1C[N+]2(C)CC[C@H]1C[C@@H]2[C@@H](O)c1ccnc2ccc(OC)cc12`, the Activity result in [4], in [5] and in [6] was “inhibitor [+]” each time.

As for `C=C[C@H]1C[N@@]2CC[C@H]1C[C@@H]2[C@@H](O)c1ccnc2ccc(OC)cc12` [QUINIDINE], the Activity result in [4], in [5] and in data set [6] was “inhibitor [+]” each time.

Consider `CO[C@H]1C[C@H](O[C@H]2CC[C@]3(C=O)[C@H]4CC[C@]5(C)[C@@H](C6=CC(=O)OC6)CC[C@]5(O)[C@@H]4CC[C@]3(O)C2)O[C@H](C)[C@H]1O[C@@H]1O[C@H](CO[C@@H]2O[C@H](CO)[C@@H](O)[C@H](O)[C@H]2O)[C@@H](O)[C@H](O)[C@H]1O`, for which the Activity result in data set [6] and in data set [1] was “inhibitor [+]” throughout.

Consider `CCC1C[N+]2(CCCC3(C)N=N3)C3CC45c6ccccc6N(C)C4C2CC1C3C5O` (stereo unspecified), for which the Activity entry in [2] and in data set [3] was “substrate [+]” in each case.

B1: Solute carrier family 22 member 1 (Rattus norvegicus) (protein)
chain: MPTVDDVLEQVGEFGWFQKQAFLLLCLISASLAPIYVGIVFLGFTPGHYCQNPGVAELSQRCGWSQAEELNYTVPGLGPSDEASFLSQCMRYEVDWNQSTLDCVDPLSSLVANRSQLPLGPCEHGWVYDTPGSSIVTEFNLVCGDAWKVDLFQSCVNLGFFLGSLVVGYIADRFGRKLCLLVTTLVTSVSGVLTAVAPDYTSMLLFRLLQGMVSKGSWVSGYTLITEFVGSGYRRTTAILYQMAFTVGLVGLAGVAYAIPDWRWLQLAVSLPTFLFLLYYWFVPESPRWLLSQKRTTRAVRIMEQIAQKNGKVPPADLKMLCLEEDASEKRSPSFADLFRTPNLRKHTVILMYLWFSCAVLYQGLIMHVGATGANLYLDFFYSSLVEFPAAFIILVTIDRIGRIYPIAASNLVTGAACLLMIFIPHELHWLNVTLACLGRMGATIVLQMVCLVNAELYPTFIRNLGMMVCSALCDLGGIFTPFMVFRLMEVWQALPLILFGVLGLTAGAMTLLLPETKGVALPETIEEAENLGRRKSKAKENTIYLQVQTGKSSST
For B1, the Km in [8] was 17.3 µM and 17 µM; in [9], 34 µM; in data set [10] it was 54 µM; in data set [11], 7.4 µM.

B2: Solute carrier family 22 member 1 (Homo sapiens) (protein)
chain: MPTVDDILEQVGESGWFQKQAFLILCLLSAAFAPICVGIVFLGFTPDHHCQSPGVAELSQRCGWSPAEELNYTVPGLGPAGEAFLGQCRRYEVDWNQSALSCVDPLASLATNRSHLPLGPCQDGWVYDTPGSSIVTEFNLVCADSWKLDLFQSCLNAGFLFGSLGVGYFADRFGRKLCLLGTVLVNAVSGVLMAFSPNYMSMLLFRLLQGLVSKGNWMAGYTLITEFVGSGSRRTVAIMYQMAFTVGLVALTGLAYALPHWRWLQLAVSLPTFLFLLYYWCVPESPRWLLSQKRNTEAIKIMDHIAQKNGKLPPADLKMLSLEEDVTEKLSPSFADLFRTPRLRKRTFILMYLWFTDSVLYQGLILHMGATSGNLYLDFLYSALVEIPGAFIALITIDRVGRIYPMAMSNLLAGAACLVMIFISPDLHWLNIIIMCVGRMGITIAIQMICLVNAELYPTFVRNLGVMVCSSLCDIGGIITPFIVFRLREVWQALPLILFAVLGLLAAGVTLLLPETKGVALPETMKDAENLGRKAKPKENTIYLKVQTSEPSGT
For the molecule B2, the Km in data set [8] is 19.5 µM and 20 µM; in data set [9] it was 53 µM; in data set [10], 101 µM; in [11], 11.5 µM and 12 µM.
